# Source: patent US11279733B2, “Peptide antibiotics” (priority 2017, dated 2022)
# Where two headings read alike, the source gives them in different places. Starred links: 1 amine or outer side, 2 acyl side, 3 side chain; linkers in the order of their positions; H or OH if unused. Positions of bridges follow the written chain, without caps; N, C: chain ends. Non-standard residues stand in square brackets, D forms with d. Residues, ends and D or L forms follow the SMILES beside them. *: point of attachment. Ala(benzothiazol-2-yl) = N[C@@H](Cc1nc2ccccc2s1)C(=O)O; Decanoyl(3R-OH) = CCCCCCC[C@@H](O)CC(=O)*; 2Nal = N[C@@H](Cc1ccc2ccccc2c1)C(=O)O; X12 = O=C(c1ccn(-c2ccccc2)c(=O)c1)*; NH(2-ClPh) = Clc1ccccc1N*; dDab = NCC[C@@H](N)C(=O)O; Heptanoyl = CCCCCCC(=O)*; Octanoyl = CCCCCCCC(=O)*; dDap = NC[C@@H](N)C(=O)O; Dab = NCC[C@H](N)C(=O)O; CO = O=C([*:1])[*:2]
# What was measured:
# in vitro = conditions: human
# Summary of the method: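 Viability is measured by resazurin reduction (5 μM, 2 h, 37 °C) after cells seeded at 4000 per well are treated with compound for 24 h.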
# [1] = tested on: P. aeruginosa GN_105, PmxR
# Summary of the method: (§1)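 Mid-log cultures grown in Mueller Hinton broth at 37° C were tested by 2-fold broth microdilution at 5×10^5 CFU/mL final. Compounds were dissolved in water and tested over a final range of 32 to 0.015 μg/mL.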
# A. baumannii GN_093 PmxR = tested on: A. baumannii GN_093 PmxR
# Summary of the method: as §1
# [2] = tested on: K. pneumoniae GN_106, PmxR
# Summary of the method: as §1
# A. baumannii ATCC 19606 = tested on: A. baumannii ATCC 19606
# Summary of the method: as §1
# [3] = tested on: K. pneumoniae GN_102 PmxR
# Summary of the method: as §1
# [4] = tested on: P. aeruginosa GN_043, PmxR
# Summary of the method: as §1
# K. pneumoniae ATCC 13883 = tested on: K. pneumoniae ATCC 13883
# Summary of the method: as §1
# E. coli ATCC 25922 = tested on: E. coli ATCC 25922
# Summary of the method: as §1
# P. aeruginosa ATCC 27853 = tested on: P. aeruginosa ATCC 27853
# Summary of the method: as §1
# [5] = tested on: K. pneumoniae ATCC 700603, MDR
# Summary of the method: as §1
# [6] = tested on: K. pneumoniae ATCC BAA-2146, NDM-1 pos
# Summary of the method: as §1
# [7] = tested on: S. aureus ATCC 25923, MSSA
# Summary of the method: as §1
Compound,CC50 at 24 h (in vitro),"MIC P. aeruginosa GN_105, PmxR ([1]; GN 105, PmxR)",MIC A. baumannii GN_093 PmxR (A. baumannii GN_093 PmxR; GN 093 PmxR),"MIC K. pneumoniae GN_106, PmxR ([2]; GN 106, PmxR)",MIC A. baumannii ATCC 19606 (A. baumannii ATCC 19606; ATCC 19606),MIC K. pneumoniae GN_102 PmxR ([3]; GN 102 PmxR),"MIC P. aeruginosa GN_043, PmxR ([4]; polymyxin-resistant)",MIC K. pneumoniae ATCC 13883 (K. pneumoniae ATCC 13883; ATCC 13883),MIC E. coli ATCC 25922 (E. coli ATCC 25922; ATCC 25922),MIC P. aeruginosa ATCC 27853 (P. aeruginosa ATCC 27853; ATCC 27853),"MIC K. pneumoniae ATCC 700603, MDR ([5]; ATCC 700603)","MIC K. pneumoniae ATCC BAA-2146, NDM-1 pos ([6]; ATCC BAA-2146)","MIC S. aureus ATCC 25923, MSSA ([7]; ATCC 25923)","MIC P. aeruginosa GN_043, PmxR ([4]; P. aeruginosa GN_043, PmxR)",also measured
"CCCCCCC[C@@H](O)CC(=O)N[C@H](CCN)C(=O)N[C@H]1CCNC(=O)[C@H](Cc2ccc3ccccc3c2)NC(=O)[C@H](CCN)NC(=O)[C@H](CCN)NC(=O)[C@H](CC(C)C)NC(=O)[C@@H](Cc2ccccc2)NC(=O)[C@H](CCN)NC1=O [compound 8908, 3(R)OH-nC9CO-D-Dab-cyc[L-Dab-L-Dab-D-Phe-L-Leu-L-Dab-L-Dab-L-Ala(2Naphthyl)]] ({Decanoyl(3R-OH)}-[dDab][Dab][Dab][dF]L[Dab][Dab][2Nal]; lactam 2-C)",39 µM,2 µg/mL,4 µg/mL,4 µg/mL,4 µg/mL,4 µg/mL,4 µg/mL,2 µg/mL,2 µg/mL,4 µg/mL,4 µg/mL,4 µg/mL,4 µg/mL,–,–
"CCCCCCC[C@@H](O)CC(=O)N[C@H](CCN)C(=O)N[C@H]1CCNC(=O)[C@H](Cc2nc3ccccc3s2)NC(=O)[C@H](CCN)NC(=O)[C@H](CCN)NC(=O)[C@H](CC(C)C)NC(=O)[C@@H](Cc2ccccc2)NC(=O)[C@H](CCN)NC1=O [compound 8910, 3(R)OH-nC9CO-D-Dab-cyc[L-Dab-L-Dab-D-Phe-L-Leu-L-Dab-L-Dab-L-Ala(Bth)]] ({Decanoyl(3R-OH)}-[dDab][Dab][Dab][dF]L[Dab][Dab][Ala(benzothiazol-2-yl)]; lactam 2-C)",47 µM,2 µg/mL,4 µg/mL,4 µg/mL,8 µg/mL,8 µg/mL,4 µg/mL,4 µg/mL,2 µg/mL,2 µg/mL,4 µg/mL,4 µg/mL,4 µg/mL,–,–
"CCCCCCC[C@@H](O)CC(=O)N[C@H](CCN)C(=O)N[C@H]1CCNC(=O)[C@H](Cc2c[nH]cn2)NC(=O)[C@H](CCN)NC(=O)[C@H](CCN)NC(=O)[C@H](CC(C)C)NC(=O)[C@@H](Cc2ccccc2)NC(=O)[C@H](CCN)NC1=O [compound 8911, 3(R)OH-nC9CO-D-Dab-cyc[L-Dab-L-Dab-D-Phe-L-Leu-L-Dab-L-Dab-L-His]] ({Decanoyl(3R-OH)}-[dDab][Dab][Dab][dF]L[Dab][Dab]H; lactam 2-C)",> 300 µM,16 µg/mL,>32 µg/mL,32 µg/mL,>32 µg/mL,>32 µg/mL,2 µg/mL,>32 µg/mL,8 µg/mL,2 µg/mL,8 µg/mL,16 µg/mL,>32 µg/mL,–,–
"CCCCCCCC(=O)N[C@H](CN)C(=O)N[C@H]1CCNC(=O)[C@H](CC(C)C)NC(=O)[C@H](CCN)NC(=O)[C@H](CCN)NC(=O)[C@H](CC(C)C)NC(=O)[C@@H](Cc2ccccc2)NC(=O)[C@H](CCN)NC1=O [compound 8976, nC7CO-D-Dap-cyc[L-Dab-L-Dab-D-Phe-L-Leu-L-Dab-L-Dab-L-Leu]] (Octanoyl-[dDap][Dab][Dab][dF]L[Dab][Dab]L; lactam 2-C)",> 300 µM,2 µg/mL,8 µg/mL,16 µg/mL,–,16 µg/mL,–,–,–,–,–,–,–,–,"MIC, A. baumannii ATCC 19606 (A. baumannii ATCC 19606; ATCC 19606): >32 µg/mL; MIC P. aeruginosa GN_043, PmxR ([4]; Table 6, polymyxin-resistant): 2 µg/mL; MIC, K. pneumoniae ATCC 13883 (K. pneumoniae ATCC 13883; ATCC 13883): 8 µg/mL; MIC, E. coli ATCC 25922 (E. coli ATCC 25922; ATCC 25922): 4 µg/mL; MIC, P. aeruginosa ATCC 27853 (P. aeruginosa ATCC 27853; ATCC 27853): 2 µg/mL; MIC, K. pneumoniae ATCC 700603, MDR ([5]; ATCC 700603): 8 µg/mL; MIC, K. pneumoniae ATCC BAA-2146, NDM-1 pos ([6]; ATCC BAA-2146): 8 µg/mL; MIC, S. aureus ATCC 25923, MSSA ([7]; ATCC 25923): >32 µg/mL"
"CC(=O)N[C@H](CN)C(=O)N[C@H]1CCNC(=O)[C@H](CC(C)C)NC(=O)[C@H](CCN)NC(=O)[C@H](CCN)NC(=O)[C@H](CC(C)C)NC(=O)[C@@H](Cc2ccccc2)NC(=O)[C@H](CCN)NC1=O [compound 8980, Ac-D-Dap-cyc[L-Dab-L-Dab-D-Phe-L-Leu-L-Dab-L-Dab-L-Leu]] (Ac-[dDap][Dab][Dab][dF]L[Dab][Dab]L; lactam 2-C)",> 300 µM,>32 µg/mL,>32 µg/mL,>32 µg/mL,–,>32 µg/mL,–,–,–,–,–,–,–,–,"MIC, A. baumannii ATCC 19606 (A. baumannii ATCC 19606; ATCC 19606): >32 µg/mL; MIC P. aeruginosa GN_043, PmxR ([4]; Table 6, polymyxin-resistant): >32 µg/mL; MIC, K. pneumoniae ATCC 13883 (K. pneumoniae ATCC 13883; ATCC 13883): >32 µg/mL; MIC, E. coli ATCC 25922 (E. coli ATCC 25922; ATCC 25922): >32 µg/mL; MIC, P. aeruginosa ATCC 27853 (P. aeruginosa ATCC 27853; ATCC 27853): 4 µg/mL; MIC, K. pneumoniae ATCC 700603, MDR ([5]; ATCC 700603): 32 µg/mL; MIC, K. pneumoniae ATCC BAA-2146, NDM-1 pos ([6]; ATCC BAA-2146): 32 µg/mL; MIC, S. aureus ATCC 25923, MSSA ([7]; ATCC 25923): >32 µg/mL"
"CC(C)C[C@@H]1NC(=O)[C@H](CCN)NC(=O)[C@H](CCN)NC(=O)[C@H](CC(C)C)NC(=O)[C@@H](Cc2ccccc2)NC(=O)[C@H](CCN)NC(=O)[C@@H](NC(=O)[C@@H](CN)NC(=O)Nc2ccccc2Cl)CCNC1=O [compound 9188, 2-ClPh-NHCO-D-Dap-cyc[L-Dab-L-Dab-D-Phe-L-Leu-L-Dab-L-Dab-L-Leu]] ({NH(2-ClPh)-CO}-[dDap][Dab][Dab][dF]L[Dab][Dab]L; lactam 2-C)",> 300 µM,–,–,–,–,–,–,–,–,–,–,–,–,>16 µg/mL,"MIC P. aeruginosa GN_105, PmxR ([1]; P. aeruginosa GN_105, PmxR): >16 µg/mL; MIC A. baumannii GN_093 PmxR (A. baumannii GN_093 PmxR; A. baumannii GN_093 PmxR): >16 µg/mL; MIC K. pneumoniae GN_106, PmxR ([2]; K. pneumoniae GN_106, PmxR): >16 µg/mL; MIC A. baumannii ATCC 19606 (A. baumannii ATCC 19606; A. baumannii ATCC 19606): >32 µg/mL; MIC K. pneumoniae GN_102 PmxR ([3]; K. pneumoniae GN_102 PmxR): >16 µg/mL; MIC K. pneumoniae ATCC 13883 (K. pneumoniae ATCC 13883; K. pneumoniae ATCC 13883): 16 µg/mL; MIC E. coli ATCC 25922 (E. coli ATCC 25922; E. coli ATCC 25922): 8 µg/mL; MIC P. aeruginosa ATCC 27853 (P. aeruginosa ATCC 27853; P. aeruginosa ATCC 27853): 2 µg/mL; MIC K. pneumoniae ATCC 700603, MDR ([5]; K. pneumoniae ATCC 700603, MDR): 8 µg/mL; MIC K. pneumoniae ATCC BAA-2146, NDM-1 pos ([6]; K. pneumoniae ATCC BAA-2146, NDM-1 pos): 8 µg/mL; MIC S. aureus ATCC 25923, MSSA ([7]; S. aureus ATCC 25923, MSSA): >16 µg/mL"
"CC(C)C[C@@H]1NC(=O)[C@H](CCN)NC(=O)[C@H](CCN)NC(=O)[C@H](CC(C)C)NC(=O)[C@@H](Cc2ccccc2)NC(=O)[C@H](CCN)NC(=O)[C@@H](NC(=O)[C@@H](CN)NC(=O)c2ccn(-c3ccccc3)c(=O)c2)CCNC1=O [compound 9189, 4-(1-Ph-pyridinone)-D-Dap-cyc[L-Dab-L-Dab-D-Phe-L-Leu-L-Dab-L-Dab-L-Leu]] (X12-[dDap][Dab][Dab][dF]L[Dab][Dab]L; lactam 2-C)",> 300 µM,16 µg/mL,>32 µg/mL,>32 µg/mL,>32 µg/mL,>32 µg/mL,–,>32 µg/mL,>32 µg/mL,4 µg/mL,32 µg/mL,32 µg/mL,>32 µg/mL,4 µg/mL,–
"CCCCCCC(=O)N[C@H](CN)C(=O)N[C@H]1CCNC(=O)[C@H](CC(C)C)NC(=O)[C@H](CCN)NC(=O)[C@H](CCN)NC(=O)[C@H](CC(C)C)NC(=O)[C@@H](Cc2ccccc2)NC(=O)[C@H](CCN)NC1=O [compound 9190, nC6CO-D-Dap-cyc[L-Dab-L-Dab-D-Phe-L-Leu-L-Dab-L-Dab-L-Leu]] (Heptanoyl-[dDap][Dab][Dab][dF]L[Dab][Dab]L; lactam 2-C)",> 300 µM,8 µg/mL,>32 µg/mL,>32 µg/mL,>32 µg/mL,32 µg/mL,–,16 µg/mL,8 µg/mL,2 µg/mL,16 µg/mL,16 µg/mL,>32 µg/mL,4 µg/mL,–
